Counter-ions that a name gives are not always drawn. Like-named read-outs stand apart in the source and are kept apart here. Values belong to the compound of their own block, whether it stands above or below them.
Legend:
SUDHL10 cells = assay: Antiproliferation assay SUDHL10 (Assay 7); assay type: cell-based; details: 72 h, CellTiter-Glo, read-out: Antiproli SUDHL10 IC50 (median)
Procedure: (§1) Assessment of the Anti-Proliferative Effect of Compounds in Different Cell Lines
(§2) The impact of compounds on the proliferation of different cell lines was assessed using the CellTiter-Glo® Luminescent Cell Viability reagent from Promega (G7573).
(§3) In parallel, cells were plated in a reference (day 0) plate for time zero determination. Cells were incubated in a humidified incubator at 37° C. overnight.
(§4) Rim wells were excluded. The cells were incubated for 72 h hours in a humidified incubator at 37° C. The day 0 plate was measured by adding 30 μL/well of CTG solution (CellTiter-Glo® Luminescent Cell Viability reagent, Promega G7573) to time zero wells in the reference plate followed by a 10 minutes incubation and luminescence reading at 0.1 ms. using the PHERAstar FS microplate reader (BMG Labtech).
(§5) After 72 h incubation, the treated plates were measured in the same way as the day 0 plate mentioned above. The Bella DRC Master Sheet was used to calculate IC50s, with CI=day 0 values and C0=DMSO control values.

A2780 cells = assay: Antiproliferation assay A2780 (Assay 7); assay type: cell-based
Procedure: as §1, §2, §3, §4, §5

MV-4-11 cells = assay: Antiproliferation assay MV-4-11 (Assay 7); assay type: cell-based; details: read-out: Antiproli MV-4-11 IC50 median, CellTiter-Glo
Summary of the method: (§6)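 CTG luminescence readout; cells plated, overnight at 37 °C, then 72 h compound treatment. Time-zero plate read in parallel. IC50 from day 0 and DMSO-normalised signal.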

MCL-1 = MCL-1 (Homo sapiens (Human), UniProt Q07820, K194A/K197A/R201A); assay: Protein-compound interaction assay (SPR assay, Assay 9); assay type: binding; details: for Kd: KD (geometric mean); for koff: read-out: koff (geometric mean), SPR, 25° C.; for kon: read-out: kon (geometric mean), SPR, 25° C.
Sequence of MCL-1 (Q07820 whole entry K194A/K197A/R201A, looked up): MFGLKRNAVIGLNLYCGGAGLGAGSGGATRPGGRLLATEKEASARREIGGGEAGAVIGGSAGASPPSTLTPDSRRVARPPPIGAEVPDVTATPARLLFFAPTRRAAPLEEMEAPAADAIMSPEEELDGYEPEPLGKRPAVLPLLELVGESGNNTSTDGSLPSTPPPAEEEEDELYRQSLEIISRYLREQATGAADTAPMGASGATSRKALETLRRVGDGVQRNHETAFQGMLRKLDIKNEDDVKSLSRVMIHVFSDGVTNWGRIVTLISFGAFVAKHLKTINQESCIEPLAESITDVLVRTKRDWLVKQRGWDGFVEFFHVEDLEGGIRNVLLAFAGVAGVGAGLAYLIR
Excerpt: Assay 9 Protein-Compound Interaction Assay (SPR Assay)
The ability of the compounds described in this invention to bind to MCL-1 may be determined using surface plasmon resonance (SPR). This allows for the quantification of binding in terms of the equilibrium dissociation constant (KD [M]), as well as association and dissociation rate constants (kon [1/Ms] and koff [1/s], respectively). The measurements may be performed using Biacore® T200 or Biacore® S200 instruments (GE Healthcare).
Briefly, carboxymethylated dextran biosensor chips (Series S Sensor Chip CMS, GE Healthcare) were activated with 1-ethyl-3-(3-dimethylaminopropyl)-carbodiimide hydrochloride (EDC) and N-hydroxysuccinimide (NHS) according to the supplier's instructions. MBP-MCL-1 was diluted in 1×PBS-P+ (GE Healthcare) and injected on the activated chip surface. Subsequently, a solution of 1 M ethanolamine-HCl (GE Healthcare) was injected to block unreacted groups, resulting in approximately 400-2500 response units (RU) of immobilized protein. A reference surface was generated by treatment with NHS-EDC and ethanolamine-HCl. […] Compounds were injected for 60 s followed by a dissociation time of up to 1000 s.
The double-referenced sensorgrams were fit to a simple reversible Langmuir 1:1 reaction mechanism as implemented in the Biacore® T200 and S200 evaluation software (T200 evaluation software version 2.0 and S200 evaluation software version 1.0, GE Healthcare).

SNU-389 cells = assay: Antiproliferation assay SNU-389 (Assay 7); assay type: cell-based; details: 72 h, read-out: Antiproli SNU-389 IC50
Summary of the method: as §6

SK-MEL-2 cells = assay: Antiproliferation assay SK-MEL-2 (Assay 7); assay type: cell-based; details: Homo sapiens, read-out: Antiproli SK-MEL-2 IC50 median
Summary of the method: as §6

SNU-16 cells = assay: Antiproliferation assay SNU-16 (Assay 7); assay type: cell-based; details: Homo sapiens, read-out: Antiproli SNU-16 IC50 median
Summary of the method: as §6

A-431 cells = assay: Antiproliferation assay A-431 (Assay 7); assay type: cell-based; details: Homo sapiens, read-out: Antiproli A-431 IC50 median
Summary of the method: as §6

PA-1 cells = assay: Antiproliferation assay PA-1 (Assay 7); assay type: cell-based; details: Homo sapiens, read-out: Antiproli PA-1 IC50 median
Summary of the method: as §6

DMS-114 cells = assay: Antiproliferation assay DMS-114 (Assay 7); assay type: cell-based; details: Homo sapiens, read-out: Antiproli DM-S114 IC50 median
Summary of the method: as §6

SK-BR-3 cells = assay: Antiproliferation assay SK-BR-3 (Assay 7); assay type: cell-based; details: Homo sapiens, SK-BR-3; 72 h, CellTiter-Glo; read-out: Antiproli SK-BR-3 IC50 median
Procedure: as §1, §2, §3, §4, §5

[1] = Homo sapiens, A2780, 72 h, CellTiter-Glo, read-out: Antiproli A2780 IC50 median
[2] = Homo sapiens, A2780, 72 h, read-out: Antiproli A2780 IC50 median, 72 h, CellTiter-Glo
[3] = DMS-114 cells, 72 h, CellTiter-Glo

- IC50 (SUDHL10 cells; Homo sapiens, SU-DHL10): 7000 nM
- IC50 (A2780 cells; [1]): 19500 nM
SMILES: Cc1c2c(nn1C)C(C)OCCCCn1c(C(=O)O)c(CCCOc3cccc4ccccc34)c3cccc-2c31 (racemic) [Example 1, (rac)-2,3,15-trimethyl-7-[3-(naphthalen-1-yloxy)propyl]-2,10,11,12,13,15-hexahydropyrazolo[4′,3′:9,10][1,6]oxazacycloundecino[8,7,6-hi]indole-8-carboxylic Acid (Mixture of Stereoisomers)]

SMILES: CCc1c2c(nn1C)C(CCN1CCOCC1)OCCCCn1c(C(=O)O)c(CCCOc3cccc4ccccc34)c3ccc(F)c-2c31 (single isomer, unassigned; enantiomer 1) [Example 11, 3-ethyl-4-fluoro-2-methyl-15-[2-(morpholin-4-yl)ethyl]-7-{3-[(naphthalen-1-yl)oxy]propyl}-2,10,11,12,13,15-hexahydropyrazolo[4′,3′:9,10][1,6]oxazacycloundecino[8,7,6-hi]indole-8-carboxylic Acid—N-ethylethanamine Salt (Enantiomer 1)]
- IC50 (MV-4-11 cells; 72 h): 144 nM
- IC50 (A2780 cells; [2]): 779 nM
- Kd (MCL-1; SPR, 25° C.): 0.61 nM
- kon (geometric mean) (MCL-1; SPR, 25° C.): 6.2 E6 1/M 1/s
- koff (MCL-1): 0.0038 s⁻¹

- IC50 (SNU-389 cells; CellTiter-Glo): 455 nM
- IC50 (SK-MEL-2 cells; SK-MEL-2, 72 h, CellTiter-Glo): 505 nM
- IC50 (SNU-16 cells; SNU-16, 72 h, CellTiter-Glo): 321 nM
- IC50 (A-431 cells; A-431, 72 h, CellTiter-Glo): 336 nM
- Kd (MCL-1; SPR, 25° C.): 0.36 nM
- koff (MCL-1): 0.009 s⁻¹
- kon (MCL-1): 2.5e+07 M⁻¹ s⁻¹
SMILES: CCc1c2c(nn1C)C(CCN1CCOCC1)OCCCCn1c(C(=O)O)c(CCCOc3cccc4cc(F)ccc34)c3ccc(F)c-2c31 (single isomer, unassigned; enantiomer 1) [Example 50, (+)-3-ethyl-4-fluoro-7-{3-[(6-fluoronaphthalen-1-yl)oxy]propyl}-2-methyl-15-[2-(morpholin-4-yl)ethyl]-2,10,11,12,13,15-hexahydropyrazolo[4′,3′:9,10][1,6]oxazacycloundecino[8,7,6-hi]indole-8-carboxylic Acid (Enantiomer 1)]
- IC50 (PA-1 cells; PA-1, 72 h, CellTiter-Glo): 222 nM
- IC50 (DMS-114 cells; [3]): 153 nM

- IC50 (SUDHL10 cells): 2900 nM
- IC50 (A2780 cells; read-out: Antiproli A2780 IC50 median, 72 h, CellTiter-Glo, listed as 02): 22800 nM
- Kd (MCL-1; SPR, 25° C.): 11 nM
- koff (MCL-1): 0.067 s⁻¹
- kon (MCL-1): 5.9e+06 M⁻¹ s⁻¹
SMILES: Cc1c2c(nn1C)C(C)OCCCCn1c(C(=O)O)c(CCCOc3cccc4ccccc34)c3cccc-2c31 (single isomer, unassigned; stereoisomer 1) [Example 2, 2,3,15-trimethyl-7-[3-(naphthalen-1-yloxy)propyl]-2,10,11,12,13,15-hexahydropyrazolo[4′,3′:9,10][1,6]oxazacycloundecino[8,7,6-hi]indole-8-carboxylic Acid Trifluoroacetic Acid Salt (Stereoisomer 1)]

- IC50 (SUDHL10 cells; Homo sapiens, SU-DHL10): 160 nM
SMILES: Cc1c2c(nn1C)C(CCN1CCOCC1)OCCCCn1c(C(=O)O)c(CCCOc3cccc4ccccc34)c3ccc(F)c-2c31 (racemic) [Example 7, (rac)-4-fluoro-2,3-dimethyl-15-[2-(morpholin-4-yl)ethyl]-7-[3-(naphthalen-1-yloxy)propyl]-2,10,11,12,13,15-hexahydropyrazolo[4′,3′:9,10][1,6]oxazacycloundecino[8,7,6-hi]indole-8-carboxylic Acid]

SMILES: Cc1c2c(nn1C)C(CCN1CCOCC1)OCCCCn1c(C(=O)O)c(CCCOc3cccc4cc(F)ccc34)c3ccc(Cl)c-2c31 (racemic) [Example 16, (rac)-4-chloro-7-{3-[(6-fluoronaphthalen-1-yl)oxy]propyl}-2,3-dimethyl-15-[2-(morpholin-4-yl)ethyl]-2,10,11,12,13,15-hexahydropyrazolo[4′,3′:9,10][1,6]oxazacycloundecino[8,7,6-hi]indole-8-carboxylic Acid]
- IC50 (MV-4-11 cells; Homo sapiens, MV4-11, 72 h): 34.6 nM
- IC50 (SK-BR-3 cells): 108 nM
- IC50 (SNU-389 cells; CellTiter-Glo): 118 nM

SMILES: CCc1c2c(nn1C)C(CCC1CCOCC1)OCCCCn1c(C(=O)O)c(CCCOc3cccc4cc(F)ccc34)c3ccc(Cl)c-2c31 (single isomer, unassigned; enantiomer 1) [Example 63, (+)-4-chloro-3-ethyl-7-{3-[(6-fluoronaphthalen-1-yl)oxy]propyl}-2-methyl-15-[2-(oxan-4-yl)ethyl]-2,10,11,12,13,15-hexahydropyrazolo[4′,3′:9,10][1,6]oxazacycloundecino[8,7,6-hi]indole-8-carboxylic Acid—N-ethylethanamine Salt (Enantiomer 1)]
- IC50 (SNU-389 cells): 183 nM
- IC50 (SK-MEL-2 cells; SK-MEL-2, 72 h): 324 nM
- IC50 (SNU-16 cells; SNU-16, 72 h): 276 nM
- IC50 (A-431 cells; A-431, 72 h): 272 nM
- IC50 (PA-1 cells; PA-1, 72 h): 204 nM
- IC50 (DMS-114 cells; DMS-114, 72 h): 156 nM
- Kd (MCL-1; SPR, 25° C.): 1.4 nM
- koff (MCL-1): 0.0016 s⁻¹
- kon (MCL-1): 1.1e+06 M⁻¹ s⁻¹

SMILES: CCc1c2c(nn1C)C(CCN1CCOCC1)OCCCCn1c(C(=O)O)c(CCCOc3cccc4ccccc34)c3ccc(F)c-2c31 (racemic) [Example 10, (rac)-3-ethyl-4-fluoro-2-methyl-15-[2-(morpholin-4-yl)ethyl]-7-[3-(naphthalen-1-yloxy)propyl]-2,10,11,12,13,15-hexahydropyrazolo[4′,3′:9,10][1,6]oxazacycloundecino[8,7,6-hi]indole-8-carboxylic Acid]
- IC50 (SUDHL10 cells; Homo sapiens, SU-DHL10): 140 nM
- IC50 (MV-4-11 cells; Homo sapiens, MV4-11, 72 h): 110 nM
- IC50 (A2780 cells; [1]): 3430 nM
- Kd (MCL-1; SPR, 25° C.): 1.1 nM
- koff (MCL-1): 0.01 s⁻¹
- kon (MCL-1): 9e+06 M⁻¹ s⁻¹

- IC50 (SUDHL10 cells): 7000 nM
- IC50 (A2780 cells; [2]): 29900 nM
SMILES: Cc1c2c(nn1C)C(C)OCCCCn1c(C(=O)O)c(CCCOc3cccc4ccccc34)c3cccc-2c31 (single isomer, unassigned; stereoisomer 2) [Example 3, 2,3,15-trimethyl-7-[3-(naphthalen-1-yloxy)propyl]-2,10,11,12,13,15-hexahydropyrazolo[4′,3′:9,10][1,6]oxazacycloundecino[8,7,6-hi]indole-8-carboxylic Acid Trifluoroacetic Acid Salt (Stereoisomer 2)]

- IC50 (SNU-389 cells; CellTiter-Glo): 151 nM
- IC50 (SK-MEL-2 cells; SK-MEL-2, 72 h, CellTiter-Glo): 197 nM
- IC50 (SNU-16 cells; SNU-16, 72 h, CellTiter-Glo): 130 nM
- IC50 (A-431 cells; A-431, 72 h, CellTiter-Glo): 126 nM
- Kd (MCL-1; SPR, 25° C.): 0.33 nM
- koff (MCL-1): 0.0012 s⁻¹
- kon (MCL-1): 3.5e+06 M⁻¹ s⁻¹
SMILES: CCc1c2c(nn1C)C(CCN1CC(F)(F)C1)OCCCCn1c(C(=O)O)c(CCCOc3cccc4cc(F)ccc34)c3ccc(Cl)c-2c31 (single isomer, unassigned; (+)) [Example 78, (+)-4-chloro-15-[2-(3,3-difluoroazetidin-1-yl)ethyl]-3-ethyl-7-{3-[(6-fluoronaphthalen-1-yl)oxy]propyl}-2-methyl-2,10,11,12,13,15-hexahydropyrazolo[4′,3′:9,10][1,6]oxazacycloundecino[8,7,6-hi]indole-8-carboxylic Acid—N-ethylethanamine Salt]
- IC50 (PA-1 cells; PA-1, 72 h, CellTiter-Glo): 127 nM
- IC50 (DMS-114 cells; [3]): 88.5 nM
